Data taken from ChEMBL document CHEMBL5537135, “Novel antimicrobial peptides modified with fluorinated sulfono-γ-AA having high stability and targeting multidrug-resistant bacteria infections” (Eur J Med Chem, 2024).
In brackets after ≈: the same amount, converted by molar mass. Activity calls are given as the source filed them. The calls are words filed in the database; no cut-off is given here. Numbered stars: 1 amine (or outer) side, 2 acyl side, 3 side chain; on linkers, the order of the positions; unused ones are H or OH. Square brackets hold non-standard residues; d marks the D form. Peptide text beside a SMILES is read from it. * marks the point of attachment. X4 = N[C@@H](Cc1ccccc1)CN(CC(=O)[*:2])[*:1]; X1 = O=S(=O)(c1ccc(C(F)(F)F)cc1)*

Experiments:
Escherichia coli = experiment: Antimicrobial activity against Escherichia coli ATCC 25922 assessed as inhibition of visible bacterial growth incubated for 18 hrs by broth-dilution method; format: functional
Pseudomonas aeruginosa [1] = experiment: Antimicrobial activity against Pseudomonas aeruginosa ATCC 27853 assessed as inhibition of visible bacterial growth incubated for 18 hrs by broth-dilution method; format: functional
Acinetobacter baumannii = experiment: Antimicrobial activity against Acinetobacter baumannii ATCC 19606 assessed as inhibition of visible bacterial growth incubated for 18 hrs by broth-dilution method; format: functional
Salmonella typhimurium = experiment: Antimicrobial activity against Salmonella typhimurium ATCC 14028 assessed as inhibition of visible bacterial growth incubated for 18 hrs by broth-dilution method; format: functional, Salmonella enterica subsp. enterica serovar Typhimurium
Staphylococcus aureus [2] = experiment: Antimicrobial activity against Staphylococcus aureus ATCC 25923 assessed as inhibition of visible bacterial growth incubated for 18 hrs by broth-dilution method; format: functional
[3] = system: Staphylococcus epidermidis; experiment: Antimicrobial activity against Staphylococcus epidermidis ATCC 12228 assessed as inhibition of visible bacterial growth incubated for 18 hrs by broth-dilution method; format: functional
Bacillus subtilis = experiment: Antimicrobial activity against Bacillus subtilis ATCC 23857 assessed as inhibition of visible bacterial growth incubated for 18 hrs by broth-dilution method; format: functional
Staphylococcus aureus [4] = experiment: Antimicrobial activity against methicillin-resistant Staphylococcus aureus ATCC 33591 assessed as inhibition of visible bacterial growth incubated for 18 hrs by broth-dilution method; format: functional
Pseudomonas aeruginosa [5] = experiment: Antimicrobial activity against multidrug-resistant Pseudomonas aeruginosa 050 assessed as inhibition of visible bacterial growth incubated for 18 hrs by broth-dilution method; format: functional
Pseudomonas aeruginosa [6] = experiment: Antimicrobial activity against multidrug-resistant Pseudomonas aeruginosa 061 assessed as inhibition of visible bacterial growth incubated for 18 hrs by broth-dilution method; format: functional
Pseudomonas aeruginosa [7] = experiment: Antimicrobial activity against multidrug-resistant Pseudomonas aeruginosa 073 assessed as inhibition of visible bacterial growth incubated for 18 hrs by broth-dilution method; format: functional
Pseudomonas aeruginosa [8] = experiment: Antimicrobial activity against multidrug-resistant Pseudomonas aeruginosa 085 assessed as inhibition of visible bacterial growth incubated for 18 hrs by broth-dilution method; format: functional
Pseudomonas aeruginosa [9] = experiment: Antimicrobial activity against multidrug-resistant Pseudomonas aeruginosa 119 assessed as inhibition of visible bacterial growth incubated for 18 hrs by broth-dilution method; format: functional
Pseudomonas aeruginosa [10] = experiment: Antimicrobial activity against multidrug-resistant Pseudomonas aeruginosa 124 assessed as inhibition of visible bacterial growth incubated for 18 hrs by broth-dilution method; format: functional
Pseudomonas aeruginosa [11] = experiment: Antimicrobial activity against multidrug-resistant Pseudomonas aeruginosa 125 assessed as inhibition of visible bacterial growth incubated for 18 hrs by broth-dilution method; format: functional
Pseudomonas aeruginosa [12] = experiment: Antimicrobial activity against multidrug-resistant Pseudomonas aeruginosa 156 assessed as inhibition of visible bacterial growth incubated for 18 hrs by broth-dilution method; format: functional
Pseudomonas aeruginosa [13] = experiment: Antimicrobial activity against multidrug-resistant Pseudomonas aeruginosa 157 assessed as inhibition of visible bacterial growth incubated for 18 hrs by broth-dilution method; format: functional
Pseudomonas aeruginosa [14] = experiment: Antimicrobial activity against multidrug-resistant Pseudomonas aeruginosa 516 assessed as inhibition of visible bacterial growth incubated for 18 hrs by broth-dilution method; format: functional
Staphylococcus aureus [15] = experiment: Antimicrobial activity against methicillin-resistant Staphylococcus aureus 1 assessed as inhibition of visible bacterial growth incubated for 18 hrs by broth-dilution method; format: functional
Staphylococcus aureus [16] = experiment: Antimicrobial activity against methicillin-resistant Staphylococcus aureus 2 assessed as inhibition of visible bacterial growth incubated for 18 hrs by broth-dilution method; format: functional
Staphylococcus aureus [17] = experiment: Antimicrobial activity against methicillin-resistant Staphylococcus aureus 3 assessed as inhibition of visible bacterial growth incubated for 18 hrs by broth-dilution method; format: functional
Staphylococcus aureus [18] = experiment: Antimicrobial activity against methicillin-resistant Staphylococcus aureus 4 assessed as inhibition of visible bacterial growth incubated for 18 hrs by broth-dilution method; format: functional
Staphylococcus aureus [19] = experiment: Antimicrobial activity against methicillin-resistant Staphylococcus aureus 5 assessed as inhibition of visible bacterial growth incubated for 18 hrs by broth-dilution method; format: functional
Staphylococcus aureus [20] = experiment: Antimicrobial activity against methicillin-resistant Staphylococcus aureus 6 assessed as inhibition of visible bacterial growth incubated for 18 hrs by broth-dilution method; format: functional
Staphylococcus aureus [21] = experiment: Antimicrobial activity against methicillin-resistant Staphylococcus aureus 7 assessed as inhibition of visible bacterial growth incubated for 18 hrs by broth-dilution method; format: functional
Staphylococcus aureus [22] = experiment: Antimicrobial activity against methicillin-resistant Staphylococcus aureus 8 assessed as inhibition of visible bacterial growth incubated for 18 hrs by broth-dilution method; format: functional
Staphylococcus aureus [23] = experiment: Antimicrobial activity against methicillin-resistant Staphylococcus aureus 9 assessed as inhibition of visible bacterial growth incubated for 18 hrs by broth-dilution method; format: functional
Staphylococcus aureus [24] = experiment: Antimicrobial activity against methicillin-resistant Staphylococcus aureus 10 assessed as inhibition of visible bacterial growth incubated for 18 hrs by broth-dilution method; format: functional
Erythrocyte = experiment: Hemolytic activity against mouse Red blood cell incubated for 1 hr; format: toxicity, cell-based
Staphylococcus aureus [25] = experiment: Antimicrobial activity against Staphylococcus aureus ATCC 25923 assessed as fold change in MIC in presence of salt solution; format: functional
Staphylococcus aureus [26] = experiment: Antimicrobial activity against Staphylococcus aureus ATCC 25923 assessed as reduction in bacterial growth in presence of Ca2+; format: functional
Pseudomonas aeruginosa [27] = experiment: Antimicrobial activity against Pseudomonas aeruginosa ATCC 27853 in presence of mouse serum; format: functional, organism-based
Staphylococcus aureus [28] = experiment: Antimicrobial activity against Staphylococcus aureus ATCC 25923 in presence of mouse serum; format: functional, organism-based
Staphylococcus aureus [29] = experiment: Antimicrobial activity against methicillin-resistant Staphylococcus aureus ATCC 33591 in presence of mouse serum; format: functional, organism-based
Pseudomonas aeruginosa [30] = experiment: Antimicrobial activity against Pseudomonas aeruginosa ATCC 27853 in presence of human serum; format: functional, organism-based
Staphylococcus aureus [31] = experiment: Antimicrobial activity against Staphylococcus aureus ATCC 25923 in presence of human serum; format: functional, organism-based
Staphylococcus aureus [32] = experiment: Antimicrobial activity against methicillin-resistant Staphylococcus aureus ATCC 33591 in presence of human serum; format: functional, organism-based
[33] = Stability in human serum assessed as half life measured for 5 hrs by RP-HPLC analysis; format: ADME, cell-free
Staphylococcus aureus [34] = experiment: Antibacterial activity against antibiotics-resistant Staphylococcus aureus ATCC 33591 assessed as reduction in microbial growth; format: functional
Pseudomonas aeruginosa [35] = experiment: Antibacterial activity against antibiotics-resistant Pseudomonas aeruginosa […] assessed as reduction in microbial growth; format: functional
Pseudomonas aeruginosa [36] = experiment: Antibacterial activity against Pseudomonas aeruginosa ATCC 27853 infected in C57BL/6 mouse pneumonia model assessed as log reduction in bacterial load in lung at 5 mg/kg, ip administered for 1 to 48 hrs and measured after 3 days; format: functional; settings: time 1-120 hrs
Pseudomonas aeruginosa [37] = experiment: Bactericidal activity against Pseudomonas aeruginosa ATCC 27853 assessed as reduction in viable bacteria at 4 times MIC measured for 30 min by time-kill assay; format: functional, organism-based
Staphylococcus aureus [38] = experiment: Drug resistance, ratio of MIC for methicillin-resistant Staphylococcus aureus ATCC 33591 after 20 days exposure to MIC for methicillin-resistant Staphylococcus aureus ATCC 33591 during first exposure; format: functional, organism-based; settings: time 20.0 day
Cell membrane [39] = experiment: Induction of cytoplasmic membrane depolarization in methicillin-resistant Staphylococcus aureus ATCC 33591 assessed as increase in fluorescence intensity at 4 times MIC by DiSC35 dye-based fluorescence assay
Cell membrane [40] = experiment: Induction of membrane depolarization in Pseudomonas aeruginosa ATCC 27853 assessed as increase in fluorescence intensity at 4 times MIC by DiSC35 dye-based fluorescence assay; format: cell membranes
Pseudomonas aeruginosa [41] = experiment: Antibacterial activity against Pseudomonas aeruginosa ATCC 27853 infected in C57BL/6 mouse pneumonia model assessed as […] at 5 mg/kg, ip administered for 1 to 48 hrs and measured after 3 days by H and E staining based analysis; format: functional, organism-based; settings: time 1-120 hrs

Compound	MIC (Escherichia coli) [µg/mL]	MIC (Pseudomonas aeruginosa [1]) [µg/mL]	MIC (Acinetobacter baumannii) [µg/mL]	MIC (Salmonella typhimurium; Salmonella enterica) [µg/mL]	MIC (Staphylococcus aureus [2]) [µg/mL]	MIC [3] [µg/mL]	MIC (Bacillus subtilis) [µg/mL]	MIC (Staphylococcus aureus [4]) [µg/mL]	MIC (Pseudomonas aeruginosa [5]) [µg/mL]	MIC (Pseudomonas aeruginosa [6]) [µg/mL]	MIC (Pseudomonas aeruginosa [7]) [µg/mL]	MIC (Pseudomonas aeruginosa [8]) [µg/mL]	MIC (Pseudomonas aeruginosa [9]) [µg/mL]	MIC (Pseudomonas aeruginosa [10]) [µg/mL]	MIC (Pseudomonas aeruginosa [11]) [µg/mL]	MIC (Pseudomonas aeruginosa [12]) [µg/mL]	MIC (Pseudomonas aeruginosa [13]) [µg/mL]	MIC (Pseudomonas aeruginosa [14]) [µg/mL]	MIC (Staphylococcus aureus [15]) [µg/mL]	MIC (Staphylococcus aureus [16]) [µg/mL]	also measured
CC(C)C[C@H](NC(=O)[C@H](CC(C)C)NC(=O)[C@H](CCCCN)NC(=O)[C@H](CCCCN)NC(=O)[C@H](CC(C)C)NC(=O)[C@H](C)NC(=O)[C@H](CCCCN)NC(=O)CN(C[C@@H](N)Cc1ccccc1)S(=O)(=O)c1ccc(C(F)(F)F)cc1)C(N)=O (X1-[X4]KALKKLL-NH2)	16 (≈ 13.2 µM)	8 (≈ 6.61 µM)	16 (≈ 13.2 µM)	16 (≈ 13.2 µM)	8 (≈ 6.61 µM)	8 (≈ 6.61 µM)	4 (≈ 3.3 µM)	8 (≈ 6.61 µM)	8 (≈ 6.61 µM)	4 (≈ 3.3 µM)	8 (≈ 6.61 µM)	8 (≈ 6.61 µM)	4 (≈ 3.3 µM)	4 (≈ 3.3 µM)	8 (≈ 6.61 µM)	16 (≈ 13.2 µM)	4 (≈ 3.3 µM)	8 (≈ 6.61 µM)	4 (≈ 3.3 µM)	8 (≈ 6.61 µM)	MIC (Staphylococcus aureus [17]): 8 µg/mL (≈ 6.61 µM); MIC (Staphylococcus aureus [18]): 8 µg/mL (≈ 6.61 µM); MIC (Staphylococcus aureus [19]): 8 µg/mL (≈ 6.61 µM); MIC (Staphylococcus aureus [20]): 8 µg/mL (≈ 6.61 µM); MIC (Staphylococcus aureus [21]): 8 µg/mL (≈ 6.61 µM); MIC (Staphylococcus aureus [22]): 8 µg/mL (≈ 6.61 µM); MIC (Staphylococcus aureus [23]): 8 µg/mL (≈ 6.61 µM); MIC (Staphylococcus aureus [24]): 8 µg/mL (≈ 6.61 µM); MHC (Erythrocyte): 256 µg/mL; fold change (FC) (Staphylococcus aureus [25]): 0.25; MIC (Staphylococcus aureus [26]): 32 µg/mL; Activity (Pseudomonas aeruginosa [27]): inactive; Activity (Staphylococcus aureus [28]): inactive; Activity (Staphylococcus aureus [29]): inactive; Activity (Pseudomonas aeruginosa [30]): Active; Activity (Staphylococcus aureus [31]): Active; Activity (Staphylococcus aureus [32]): Active; half-life [33]: 3.93 h
CC(C)(O/N=C(\C(=O)N[C@@H]1C(=O)N2C(C(=O)[O-])=C(C[n+]3ccccc3)CS[C@H]12)c1csc(N)n1)C(=O)O [CEFTAZIDIME]	1 (≈ 1.83 µM)	1 (≈ 1.83 µM)	4 (≈ 7.32 µM)	256 (≈ 468 µM)	4 (≈ 7.32 µM)	256 (≈ 468 µM)	8 (≈ 14.6 µM)	258 (≈ 472 µM)	1 (≈ 1.83 µM)	1 (≈ 1.83 µM)	1 (≈ 1.83 µM)	1 (≈ 1.83 µM)	1 (≈ 1.83 µM)	256 (≈ 468 µM)	2 (≈ 3.66 µM)	256 (≈ 468 µM)	1 (≈ 1.83 µM)	1 (≈ 1.83 µM)	–	–	MIC (Staphylococcus aureus [34]): 32 µg/mL; MIC (Pseudomonas aeruginosa [35]): 32 µg/mL; log(activity) (Pseudomonas aeruginosa [36]): 4.75
POLYMYXIN B	1	1	4	–	8	8	8	16	1	1	1	1	1	1	1	256	1	1	8	8	MIC (Salmonella typhimurium; Salmonella enterica subsp. enterica serovar Typhimurium): 2 µg/mL; MIC (Staphylococcus aureus [17]): 8 µg/mL; MIC (Staphylococcus aureus [18]): 16 µg/mL; MIC (Staphylococcus aureus [19]): 16 µg/mL; MIC (Staphylococcus aureus [20]): 8 µg/mL; MIC (Staphylococcus aureus [21]): 16 µg/mL; MIC (Staphylococcus aureus [22]): 16 µg/mL; MIC (Staphylococcus aureus [23]): 16 µg/mL; MIC (Staphylococcus aureus [24]): 16 µg/mL; Activity (Pseudomonas aeruginosa [37]): Active; Ratio (Staphylococcus aureus [38]): 8; Activity (Cell membrane [39]): inactive; Activity (Cell membrane [40]): inactive; log(activity) (Pseudomonas aeruginosa [36]): 4.54; Activity (Pseudomonas aeruginosa [41]): inactive
